What was measured:
[1] = In vitro conversion of pro-drug to parent compound by intestinal S9 fraction (human); format: in vitro ADME; settings: pooled intestinal S9 fraction, 37° C., read-out: T1/2 of conversion to the parent compound
Description: (§1) Drug stock solutions (100 μM) were prepared in methanol by two subsequent 1:10 dilutions from 10 mM DMSO drug solutions.
(§2) Frozen pooled intestinal S9 fractions (final protein concentration 2 mg/mL), alamethicin (25 μg/mg). 0.IM phosphate buffer containing 1 mM magnesium chloride and NADPH (final concentration 1 mM) plus UDPGA (final concentration 3.5 mM) are pre incubated at 37° C. prior to the addition of test compound (final substrate concentration 1 μM; final DMSO concentration 0.25%) to initiate the reaction. An additional incubation is performed in the absence of cofactors (NADPH, UDPGA).
(§3) Incubation plate was incubated on a shaker with temperature controlled at 37° C. Sequential samples were removed at designated timepoints (0, 5, 15, 30, 60 and 120 mins) and quenched with 4 volumes of ice-cold acetonitrile (containing internal standard glyburide). At the end of the incubation, samples plates were centrifuged, and supernatants reconstituted in water. Samples were then analyzed by LC/MS to assess parent depletion.
(§4) A ratio of compound peak area/internal standard peak area for each time point is generated and subsequently expressed as % of the response at time 0. The percentage stability of a compound in intestinal S9 solution at time t is calculated as detailed in Equation 1: […]
(§5) The half-life (t1/2) is calculated using the Equation 2: […]

[2] = In vitro conversion of pro-drug to parent compound by intestinal S9 fraction (rat); format: in vitro ADME; settings: Sprague-Dawley, pooled intestinal S9 fraction, 37° C., read-out: T1/2 of conversion to the parent compound
Description: as §1, §2, §3, §4, §5

[3] = In vitro conversion of pro-drug to parent compound by intestinal S9 fraction (dog); format: in vitro ADME; settings: beagle, pooled intestinal S9 fraction, 37° C., read-out: T1/2 of conversion to the parent compound
Description: as §1, §2, §3, §4, §5

[4] = target: T1, GIRK1/4 (Homo sapiens, UniProt P48544+P48549); experiment: GIRK1/4 in vitro activity assay (IonWorks Quattro population patch clamp); format: cell-based; settings: GIRK 1/4 HEK293 stable cells, inward potassium current; read-out: inhibitory activity (IC50)
T1 sequence (P48549 1-501): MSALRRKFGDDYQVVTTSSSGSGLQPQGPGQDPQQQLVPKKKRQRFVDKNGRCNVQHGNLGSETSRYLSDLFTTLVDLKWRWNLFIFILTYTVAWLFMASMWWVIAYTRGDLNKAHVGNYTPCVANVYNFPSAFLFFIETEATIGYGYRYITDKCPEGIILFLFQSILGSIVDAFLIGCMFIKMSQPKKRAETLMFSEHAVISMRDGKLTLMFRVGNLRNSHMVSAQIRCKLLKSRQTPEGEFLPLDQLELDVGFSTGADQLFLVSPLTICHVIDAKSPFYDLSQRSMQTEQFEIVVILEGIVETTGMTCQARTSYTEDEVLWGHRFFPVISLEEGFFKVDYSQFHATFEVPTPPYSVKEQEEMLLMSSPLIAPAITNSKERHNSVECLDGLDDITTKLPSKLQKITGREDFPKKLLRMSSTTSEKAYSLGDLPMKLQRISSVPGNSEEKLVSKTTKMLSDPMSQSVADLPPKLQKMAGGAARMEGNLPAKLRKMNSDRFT
T1 sequence (P48544 1-419): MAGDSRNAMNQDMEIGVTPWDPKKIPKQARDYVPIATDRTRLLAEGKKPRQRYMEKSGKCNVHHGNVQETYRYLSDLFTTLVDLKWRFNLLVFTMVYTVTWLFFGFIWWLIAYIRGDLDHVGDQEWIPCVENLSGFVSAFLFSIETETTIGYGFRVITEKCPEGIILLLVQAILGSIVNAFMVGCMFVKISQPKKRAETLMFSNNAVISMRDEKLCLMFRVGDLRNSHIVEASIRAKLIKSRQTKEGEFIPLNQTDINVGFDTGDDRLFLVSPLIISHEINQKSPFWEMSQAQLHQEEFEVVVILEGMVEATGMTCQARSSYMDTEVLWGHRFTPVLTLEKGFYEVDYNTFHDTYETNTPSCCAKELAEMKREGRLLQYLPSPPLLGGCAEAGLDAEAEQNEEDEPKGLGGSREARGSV
Description: The GIRK1/4 activity of the parent compounds formed after cleavage upon hydrolysis of the phosphoric acid ester group of the compounds according to the present disclosure was assessed by the following in vitro method.
• a. External buffer: 10 mM NaCl, 50 mM Na Gluconate, 80 mM K Gluconate, 1.8 mM CaCl2, 1 mM MgCl2, 10 mM HEPES, 10 mM Glucose, pH 7.4; osmolarity […]. • b. Internal buffer: 30 mM KCl, 100 mM K Gluconate, 1 mM MgCl2, 10 mM HEPES, 1 mM EGTA, 10 mM NaCl, pH 7.2; osmolarity […].
• c. Prepare seven-fold compound dilution series (10 mM to 20 μM) in 100% DMSO, in 384-well polypropylene plates. • d. Propafenone (Sigma Aldrich, catalog number P4670) was used as a positive control and DMSO for neutral control. • e. Resuspend 1 μl of compounds in DMSO into 66.7 μl external buffer in 384-well polypropylene plate and load into Plate 1 section of Molecular Devices Quattro.
• f. […]
Quattro was controlled using IonWorks v2 software to perform the following steps: • p. […] Measured magnitude of inward potassium current at time point between 1200-1220 ms from start of Pulse 1 (i.e. during the voltage ramp phase). • t. […]
IC50 values were calculated by plotting the percentage of current inhibition (normalized to the DMSO-only control) as a function of compound concentration using standard data analysis software.

| SMILES | half-life at 1 μM ([1]; human intestinal S9, + cofactor (NADPH, UDPGA)) | half-life at 1 μM ([1]; human intestinal S9, − cofactor) | half-life at 1 μM ([2]; rat intestinal S9, + cofactor (NADPH, UDPGA)) | half-life at 1 μM ([2]; rat intestinal S9, − cofactor) | half-life at 1 μM ([3]; dog intestinal S9, + cofactor (NADPH, UDPGA)) | half-life at 1 μM ([3]; dog intestinal S9, − cofactor) | IC50 [4] |
| --- | --- | --- | --- | --- | --- | --- | --- |
| CNC(=O)[C@@H](O)COc1ncc(Cl)c2c1c(=O)cc(C)n2-c1c(Cl)cc(OCCOP(=O)(O)O)cc1Cl.[Ca] [Example 1a, (S)-2-(3,5-dichloro-4-(8-chloro-5-(2-hydroxy-3-(methylamino)-3-oxopropoxy)-2-methyl-4-oxo-1,6-naphthyridin-1(4H)-yl)phenoxy)ethyl dihydrogen phosphate calcium salt] | 88.7 min | 86.7 min | 14.4 min | 16.5 min | 45.3 min | 46 min |  |
| CNC(=O)[C@H](COc1ncc(Cl)c2c1c(=O)cc(C)n2-c1c(Cl)cc(OCCO)cc1Cl)OP(=O)(O)O [Example 2, (S)-3-((8-chloro-1-(2,6-dichloro-4-(2-hydroxyethoxy)phenyl)-2-methyl-4-oxo-1,4-dihydro-1,6-naphthyridin-5-yl)oxy)-1-(methylamino)-1-oxopropan-2-yl dihydrogen phosphate] |  |  |  |  |  |  | > 10 µM |
| CNC(=O)[C@@H](O)COc1ncc(Cl)c2c1c(=O)cc(C)n2-c1c(Cl)cc(OCCOP(=O)(O)O)cc1Cl [Example 1, (S)-2-(3,5-dichloro-4-(8-chloro-5-(2-hydroxy-3-(methylamino)-3-oxopropoxy)-2-methyl-4-oxo-1,6-naphthyridin-1 (4H)-yl)phenoxy)ethyl dihydrogen phosphate] |  |  |  |  |  |  | > 10 µM |

— patent US20240391941A1, “NAPHTHYRIDINONE DERIVATIVES FOR THE TREATMENT OF A DISEASE OR DISORDER” (Novartis AG, priority 2023, published 2024)
